The text below walks through data of patent US8927500B2, “Peptidomimetic macrocycles” (Aileron Therapeutics, Inc., priority 2012, dated 2015).

Where two headings read alike, the source gives them in different places. Where a SMILES comes first, the peptide text is derived from it. Bridges are numbered along the chain shown (N, C = ends). [ ]: non-standard residue; d: D form. R8 = C=CCCCCCC[C@@](C)(N)C(=O)O; Cba = N[C@@H](CC1CCC1)C(=O)O; S5 = C=CCCC[C@](C)(N)C(=O)O Some results are limits rather than exact numbers.

For one assay, the target named is MDM2 (Homo sapiens, UniProt Q00987). Description: Competitive fluorescence polarization assay for MDM2. Format: binding. The note with it: competitive FP assay, MDM2; for IC50: read-out: IC50 (MDM2).
Another assay deals with T1, MDMX (Homo sapiens, UniProt O15151).
T1 sequence (O15151 1-125): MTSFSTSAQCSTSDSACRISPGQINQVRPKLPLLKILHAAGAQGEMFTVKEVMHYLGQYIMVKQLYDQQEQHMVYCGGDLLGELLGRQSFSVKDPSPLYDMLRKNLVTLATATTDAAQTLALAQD
Description: Competitive fluorescence polarization assay for MDMX. It is filed as binding. Conditions: competitive FP assay; for IC50: read-out: IC50 (MDMX); for Ki: read-out: Ki (MDMX). (In general: Polarisation of emitted light reports the rotation of a fluorescent probe.)

MDM2, sequence (Q00987 1-125): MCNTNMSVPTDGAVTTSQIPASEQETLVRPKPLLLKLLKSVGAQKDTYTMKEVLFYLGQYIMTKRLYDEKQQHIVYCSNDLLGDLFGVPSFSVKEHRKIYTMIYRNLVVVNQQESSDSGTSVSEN

Take `CC(=O)N[C@@H](CC(C)C)C(=O)N[C@H](C(=O)N[C@@H](Cc1ccccc1)C(=O)N[C@]1(C)CCCCCCC=CCCC[C@@](C)(C(=O)N[C@@H](C)C(=O)N[C@@H](C)C(=O)NC(C)(C)C(=O)N[C@H](C(N)=O)C(C)C)NC(=O)[C@H](CC(C)C)NC(=O)[C@H](CCC(N)=O)NC(=O)[C@H](C)NC(=O)[C@H](Cc2c[nH]c3ccccc23)NC(=O)[C@H](Cc2ccc(O)cc2)NC(=O)[C@H](C)NC1=O)[C@@H](C)O` (single isomer, unassigned) [compound 23]: on MDM2, the 50% inhibitory concentration (IC50) was in the range of 100 to 1000 nM. The inhibitory constant (Ki) on MDM2 (read-out: Ki (MDM2)) lay in the range of 10 to 100 nM.

In the case of `CC(=O)N[C@@H](CC(C)C)C(=O)N[C@H](C(=O)N[C@@H](Cc1ccccc1)C(=O)N[C@]1(C)CCCCCCC=CCCC[C@@](C)(C(=O)N[C@@H](C)C(=O)N[C@@H](C)C(=O)NC(C)(C)C(=O)N[C@H](C(N)=O)C(C)C)NC(=O)[C@H](CC(C)C)NC(=O)[C@H](CCC(N)=O)NC(=O)[C@H](C)NC(=O)[C@H](Cc2c[nH]c3ccccc23)NC(=O)[C@H](Cc2ccc(O)cc2)NC(=O)[C@H](C)NC1=O)[C@@H](C)O` (single isomer, unassigned) [compound 24], the IC50 at MDM2 was 10 to 100 nM. On MDM2 (read-out: Ki (MDM2)), the inhibition constant (Ki) was under 10 nM.

On to `CCCC[C@H](NC(=O)[C@H](C)NC(=O)[C@H](C)NC(=O)[C@]1(C)CCCC=CCCCCCC[C@@](C)(NC(=O)[C@H](Cc2ccccc2)NC(=O)[C@@H](NC(=O)[C@H](CC(C)C)NC(C)=O)[C@@H](C)O)C(=O)N[C@@H](C)C(=O)N[C@@H](Cc2ccc(O)cc2)C(=O)N[C@@H](Cc2c[nH]c3ccccc23)C(=O)N[C@@H](C)C(=O)N[C@@H](CCC(N)=O)C(=O)N[C@@H](CC(C)C)C(=O)N1)C(=O)N[C@@H](C)C(N)=O` (single isomer, unassigned) [compound 68], for which the half-maximal inhibitory concentration (IC50) on MDMX and on MDM2 was 100 to 1000 nM throughout. Also, the Ki at MDMX and at MDM2 (read-out: Ki (MDM2)) was 10 to 100 nM each time.

With `CC(=O)N[C@@H](CC(C)C)C(=O)N[C@H](C(=O)N[C@@H](Cc1ccc(F)c(F)c1)C(=O)N[C@]1(C)CCCCCCC=CCCC[C@@](C)(C(=O)N[C@@H](CO)C(=O)N[C@@H](C)C(=O)N[C@@H](C)C(N)=O)NC(=O)[C@H](CC2CCC2)NC(=O)[C@H](CCC(N)=O)NC(=O)[C@H](C)NC(=O)[C@H](Cc2c[nH]c3ccccc23)NC(=O)[C@H](Cc2ccc(O)cc2)NC(=O)[C@H](CCC(=O)O)NC1=O)[C@@H](C)O` (single isomer, unassigned) [compound 289], at MDMX, the half-maximal inhibitory concentration (IC50) fell in the range of 10 to 100 nM and the inhibition constant (Ki) lay in the range of 10 to 100 nM.

Turning to `CC(=O)N[C@@H](CC(C)C)C(=O)N[C@H](C(=O)N[C@@H](Cc1ccccc1)C(=O)N[C@]1(C)CCCCCCC=CCCC[C@@](C)(C(=O)N[C@@H](C)C(=O)N[C@@H](C)C(=O)N[C@@H](C)C(=O)N[C@@H](C)C(=O)N[C@H](C)C(N)=O)NC(=O)[C@H](CCC(C)C)NC(=O)[C@H](CCC(N)=O)NC(=O)[C@H](C)NC(=O)[C@H](Cc2c[nH]c3ccccc23)NC(=O)[C@H](Cc2ccc(O)cc2)NC(=O)[C@H](C)NC1=O)[C@@H](C)O` (single isomer, unassigned) [compound 313], on MDMX, the IC50 lay in the range of 100 to 1000 nM and the Ki lay in the range of 10 to 100 nM.

Regarding `CC(=O)N[C@@H](CC(C)C)C(=O)N[C@H](C(=O)N[C@@H](Cc1ccccc1)C(=O)N[C@]1(C)CCCCCCC=CCCC[C@@](C)(C(=O)N[C@@H](C)C(=O)N[C@@H](C)C(=O)N[C@@H](C)C(=O)N[C@@H](C)C(=O)N[C@H](C)C(N)=O)NC(=O)[C@H](CCC(C)C)NC(=O)[C@H](CCC(N)=O)NC(=O)[C@H](C)NC(=O)[C@H](Cc2c[nH]c3ccccc23)NC(=O)[C@H](Cc2ccc(O)cc2)NC(=O)[C@H](C)NC1=O)[C@@H](C)O` (single isomer, unassigned) [compound 314], at MDMX, the IC50 was in the range of 10 to 100 nM and the Ki was under 10 nM.

For `CCCC[C@H](NC(=O)C(C)(C)NC(=O)[C@H](C)NC(=O)[C@]1(C)CCCC=CCCCCCC[C@@](C)(NC(=O)[C@H](Cc2ccccc2)NC(=O)[C@@H](NC(=O)[C@H](CC(C)C)NC(C)=O)[C@@H](C)O)C(=O)N[C@@H](C)C(=O)N[C@@H](Cc2ccc(O)cc2)C(=O)N[C@@H](Cc2c[nH]c3ccccc23)C(=O)N[C@@H](C)C(=O)N[C@@H](CCC(N)=O)C(=O)N[C@@H](CC(C)C)C(=O)N1)C(=O)N[C@@H](C)C(N)=O` (single isomer, unassigned) [compound 392], at MDM2, the IC50 is 10 to 100 nM. Moreover, the Ki at MDM2 (read-out: Ki (MDM2)) was under 10 nM.

On to `CCCC[C@H](NC(=O)CN(C)C(=O)[C@H](C)NC(=O)[C@]1(C)CCCC=CCCCCCC[C@@](C)(NC(=O)[C@H](Cc2ccccc2)NC(=O)[C@@H](NC(=O)[C@H](CC(C)C)NC(C)=O)[C@@H](C)O)C(=O)N[C@@H](C)C(=O)N[C@@H](Cc2ccc(O)cc2)C(=O)N[C@@H](Cc2c[nH]c3ccccc23)C(=O)N[C@@H](C)C(=O)N[C@@H](CCC(N)=O)C(=O)N[C@@H](CC(C)C)C(=O)N1)C(=O)N[C@@H](C)C(N)=O` (single isomer, unassigned) [compound 396], for which, on MDM2, the IC50 was under 10 nM. In addition, the Ki on MDM2 (read-out: Ki (MDM2)) is under 10 nM.

Turning to `CC(=O)N[C@@H](CC(C)C)C(=O)N[C@H](C(=O)N[C@@H](Cc1ccccc1)C(=O)N[C@]1(C)CCCCCCC=CCCC[C@@](C)(C(=O)N[C@@H](C)C(=O)N[C@@H](C)C(=O)N[C@@H](C)C(=O)N[C@@H](C)C(=O)NC(C)(C)C(=O)N[C@H](C)C(N)=O)NC(=O)[C@H](CC(C)C)NC(=O)[C@H](CCC(N)=O)NC(=O)[C@H](C)NC(=O)[C@H](Cc2c[nH]c3ccccc23)NC(=O)[C@H](Cc2ccc(O)cc2)NC(=O)[C@H](CCC(=O)O)NC1=O)[C@@H](C)O` (single isomer, unassigned) [compound 565], at MDM2 (read-out: Ki (MDM2)), the Ki lay in the range of 10 to 100 nM.

Turning to `CC(=O)N[C@@H](CC(C)C)C(=O)N[C@H](C(=O)N[C@@H](Cc1ccccc1)C(=O)N[C@]1(C)CCCCCCC=CCCC[C@@](C)(C(=O)N[C@@H](C)C(=O)N[C@@H](C)C(=O)N[C@@H](C)C(=O)N[C@@H](C)C(=O)NC(C)(C)C(=O)N[C@H](C)C(N)=O)NC(=O)[C@H](CC(C)C)NC(=O)[C@H](CCC(N)=O)NC(=O)[C@H](C)NC(=O)[C@H](Cc2c[nH]c3ccccc23)NC(=O)[C@H](Cc2ccc(O)cc2)NC(=O)[C@H](CCC(=O)O)NC1=O)[C@@H](C)O` (single isomer, unassigned) [compound 566], the Ki on MDM2 (read-out: Ki (MDM2)) is under 10 nM.

As for `CCCCCCCCCC(=O)N[C@@H](CC(C)C)C(=O)N[C@H](C(=O)N[C@@H](Cc1ccccc1)C(=O)N[C@]1(C)CCCCCCC=CCCC[C@@](C)(C(=O)N[C@@H](CO)C(=O)N[C@@H](C)C(=O)N[C@@H](C)C(N)=O)NC(=O)[C@H](CCC(C)C)NC(=O)[C@H](CCC(N)=O)NC(=O)[C@H](C)NC(=O)[C@H](Cc2c[nH]c3ccccc23)NC(=O)[C@H](Cc2ccc(O)cc2)NC(=O)[C@H](CCC(=O)O)NC1=O)[C@@H](C)O` [compound 282], on MDMX, the IC50 was over 1000 nM and the Ki was over 1000 nM.

As to `CC(=O)N[C@@H](CC(C)C)C(=O)N[C@H](C(=O)N[C@@H](Cc1ccccc1)C(=O)N[C@]1(C)CCCCCCC=CCCC[C@@](C)(C(=O)N[C@@H](CO)C(=O)N[C@@H](C)C(=O)N[C@@H](C)C(N)=O)NC(=O)[C@H](CC2CCC2)NC(=O)[C@H](CCC(N)=O)NC(=O)[C@H](C)NC(=O)[C@H](Cc2c[nH]c3cc(Cl)ccc23)NC(=O)[C@H](Cc2ccc(O)cc2)NC(=O)[C@H](CCC(=O)O)NC1=O)[C@@H](C)O` [compound 332], on MDMX, the IC50 is 10 to 100 nM and the Ki was under 10 nM.

In the case of `CC(C)C[C@H](NC(=O)CN(C)C)C(=O)N[C@H](C(=O)N[C@@H](Cc1ccccc1)C(=O)N[C@]1(C)CCCCCCC=CCCC[C@@](C)(C(=O)N[C@@H](CO)C(=O)N[C@@H](C)C(=O)N[C@@H](C)C(N)=O)NC(=O)[C@H](CC2CCC2)NC(=O)[C@H](CCC(N)=O)NC(=O)[C@H](C)NC(=O)[C@H](Cc2c[nH]c3ccccc23)NC(=O)[C@H](Cc2ccc(O)cc2)NC(=O)[C@H](CCC(=O)O)NC1=O)[C@@H](C)O` [compound 435], at MDMX, the IC50 was 10 to 100 nM and the Ki was under 10 nM.

Compound `CC(=O)N[C@@H](CC(C)C)C(=O)N[C@H](C(=O)N[C@@H](Cc1ccccc1)C(=O)N[C@]1(C)CCCCCCC=CCCC[C@@](C)(C(=O)N[C@H](C)C(N)=O)NC(=O)[C@H](CC(C)C)NC(=O)[C@H](CCC(N)=O)NC(=O)[C@H](C)NC(=O)[C@H](Cc2c[nH]c3ccccc23)NC(=O)[C@H](Cc2ccc(O)cc2)NC(=O)[C@H](CCC(=O)O)NC1=O)[C@@H](C)O` [compound 589] (Ac-LTF[R8]EYWAQL[S5][dA]-NH2; staple 4-11) came in with a Ki at MDM2 (Ki (MDM2)) of under 10 nM.

In the case of `CC(=O)N[C@@H](CC(C)C)C(=O)N[C@H](C(=O)N[C@@H](Cc1ccccc1)C(=O)N[C@]1(C)CCCCCCC=CCCC[C@@](C)(C(=O)N[C@@H](CO)C(N)=O)NC(=O)[C@H](CC2CCC2)NC(=O)[C@H](CCC(N)=O)NC(=O)[C@H](C)NC(=O)[C@H](Cc2c[nH]c3ccccc23)NC(=O)[C@H](Cc2ccc(O)cc2)NC(=O)[C@H](CCC(=O)O)NC1=O)[C@@H](C)O` [compound 595] (Ac-LTF[R8]EYWAQ[Cba][S5]S-NH2; staple 4-11), the inhibitory constant (Ki) at MDM2 (read-out: Ki (MDM2)) was over 1000 nM.

Consider `CC(C)C[C@H](NC(=O)c1ccc(F)cc1)C(=O)N[C@H](C(=O)N[C@@H](Cc1ccccc1)C(=O)N[C@]1(C)CCCCCCC=CCCC[C@@](C)(C(=O)N[C@@H](CO)C(=O)N[C@@H](C)C(=O)N[C@@H](C)C(N)=O)NC(=O)[C@H](CC2CCC2)NC(=O)[C@H](CCC(N)=O)NC(=O)[C@H](C)NC(=O)[C@H](Cc2c[nH]c3ccccc23)NC(=O)[C@H](Cc2ccc(O)cc2)NC(=O)[C@H](CCC(=O)O)NC1=O)[C@@H](C)O` [compound 597], for which the Ki on MDMX was in the range of 10 to 100 nM.

In the case of `CC(C)C[C@H](NC(=O)CCNC(=O)c1ccc2c(c1)C(=O)OC21c2ccc(N(C)C)cc2Oc2cc(N(C)C)ccc21)C(=O)N[C@H](C(=O)N[C@@H](Cc1ccccc1)C(=O)N[C@]1(C)CCCCCCC=CCCC[C@@](C)(C(=O)N[C@@H](CO)C(=O)N[C@@H](C)C(=O)N[C@@H](C)C(N)=O)NC(=O)[C@H](CC2CCC2)NC(=O)[C@H](CCC(N)=O)NC(=O)[C@H](C)NC(=O)[C@H](Cc2c[nH]c3ccccc23)NC(=O)[C@H](Cc2ccc(O)cc2)NC(=O)[C@H](CCC(=O)O)NC1=O)[C@@H](C)O` [compound 686], the Ki on MDMX is 10 to 100 nM.

The term IC50 denotes the point on the concentration scale where inhibition reaches its midpoint. By Ki is commonly meant a dissociation constant, usually derived from enzyme kinetics or from competition with a known ligand.
